This experiment deals with T1, human 11β-HSD1 (Homo sapiens, UniProt P28845).
T1 construct: expressed in transfected cells; host or cells: CHO cells (microsomes)
The experiment in a line: Inhibition of microsomal preparation of 11β-HSD1 (SPA, Biological Test Example 1). Conditions: for IC50: microsomes from CHO cells overexpressing human 11β-HSD1, read-out: IC50 Range; for inhibition at 0.1 µM: 100 nM. It counts as biochemical. The gist of the method:
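Microsomes from CHO cells overexpressing human 11β-HSD1 reduced [3H]cortisone (160 nM in substrate solution, with 2 mM NADPH, HEPES pH 7.4) for 90 min at rt after a 10 min compound preincubation. Compounds were run as 8-point half-log DMSO dilutions from 0.1 mM. 18β-glycyrrhetinic acid stopped the reaction, and anti-cortisol antibody SPA beads read [3H]cortisol.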

This is an account of results in US8383629B2, “Inhibitors of 11β-hydroxysteroid dehydrogenase type 1” (Vitae Pharmaceuticals, Inc., priority 2008, dated 2013).

In general, inhibition refers to how much of the control response was suppressed. As a reminder, the IC50 is the concentration that gives 50% inhibition.

Molecules are shown by their SMILES. Some results are limits rather than exact numbers.

T1 sequence (P28845 whole entry): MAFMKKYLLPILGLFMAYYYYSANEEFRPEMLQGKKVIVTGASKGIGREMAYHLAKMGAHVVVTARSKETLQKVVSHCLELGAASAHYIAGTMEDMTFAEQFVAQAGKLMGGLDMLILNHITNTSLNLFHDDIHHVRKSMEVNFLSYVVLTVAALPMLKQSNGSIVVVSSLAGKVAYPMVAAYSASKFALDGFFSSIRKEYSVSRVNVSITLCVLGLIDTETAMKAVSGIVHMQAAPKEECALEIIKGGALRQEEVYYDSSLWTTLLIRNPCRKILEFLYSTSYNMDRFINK

Consider `O=C1CC2(CCN(C(=O)NCc3ccccc3OC(F)(F)F)CC2)c2c(Br)cccc21` [EXAMPLE 99, 7-bromo-3-oxo-N-(2-(trifluoromethoxy)benzyl)-2,3-dihydrospiro[indene-1,4′-piperidine]-1′-carboxamide], for which the IC50 was less than 100 nM. In addition, the inhibition at 0.111 µM (111 nM) was found to be 75.6%.

On to `NC1CC2(CCN(C(=O)CCc3ccccc3C(F)(F)F)CC2)c2c(Br)cccc21` (centres unmarked) [EXAMPLE 66, 1-(3-amino-7-bromo-2,3-dihydrospiro[indene-1,4′-piperidine]-1′-yl)-3-(2-(trifluoromethyl)phenyl)propan-1-one], for which the IC50 was less than 100 nM. Besides, 0.111 µM produced 92.1% inhibition (111 nM).

For `CCOC(=O)CC1CC2(CCN(C(=O)N(C)Cc3ccccc3F)CC2)c2c(Br)cccc21` (centres unmarked) [EXAMPLE 103, Ethyl 2-(7-bromo-1′-((2-fluorobenzyl)(methyl)carbamoyl)-2,3-dihydrospiro[indene-1,4′-piperidine]-3-yl)acetate], the IC50 is less than 100 nM. The molecule also gave an inhibition at 0.111 µM (111 nM) of 79.4%.

In the case of `Cc1ccccc1CNC(=O)N1CCC2(CC1)CC(CC(=O)N1CCNCC1)c1cccc(Br)c12` (centres unmarked) [EXAMPLE 90, 7-bromo-N-(2-methylbenzyl)-3-(2-oxo-2-(piperazin-1-yl)ethyl)-2,3-dihydrospiro[indene-1,4′-piperidine]-1′-carboxamide], the IC50 is 100 to 1000 nM. This molecule returned an inhibition at 0.111 µM (111 nM) of 52.4%.

Turning to `NC(=O)CC1CC2(CCN(C(=O)/C=C/c3ccccc3C(F)(F)F)CC2)c2c(Br)cccc21` (racemic) [EXAMPLE 13, (±)-(E)-2-(7-bromo-1′-(3-(2-(trifluoromethyl)phenyl)acryloyl)-2,3-dihydrospiro[indene-1,4′-piperidine]-3-yl)acetamide], at 0.1 µM the inhibition was 94.6% and the IC50 was less than 100 nM. Also, the inhibition at 0.111 µM (111 nM) was 94.8%.

`CC1(C)NC(=O)C2(CCN(C(=O)/C=C/c3ccccc3C(F)(F)F)CC2)c2ccccc21` [EXAMPLE 43, (E)-1,1-dimethyl-1′-(3-(2-(trifluoromethyl)phenyl)acryloyl)-1H-spiro[isoquinoline-4,4′-piperidin]-3(2H)-one]: testing at 0.1 µM gave an inhibition of 90.6% and the IC50 is less than 100 nM.

For the molecule `O=C(/C=C/c1ccccc1C(F)(F)F)N1CCC2(CC1)C(=O)Nc1ccc(F)cc12` [EXAMPLE 41, (E)-5-fluoro-1′-(3-(2-(trifluoromethyl)phenyl)acryloyl)spiro[indoline-3,4′-piperidin]-2-one], the inhibition at 0.1 µM came out at 91.2% and the IC50 was less than 100 nM.

Regarding `CN1C(=O)c2cccc(Cl)c2C12CCN(C(=O)CCc1ccccc1C(F)(F)F)CC2` [EXAMPLE 61, 7-chloro-2-methyl-1′-(3-(2-(trifluoromethyl)phenyl)propanoyl)spiro[isoindoline-1,4′-piperidin]-3-one], the inhibition at 0.1 µM is 93.3% and the IC50 was less than 100 nM. Moreover, the inhibition at 0.111 µM (111 nM) is 96.7%.

With `CN1C(=O)C2(CCN(C(=O)/C=C/c3ccccc3C(F)(F)F)CC2)c2cc(C#N)ccc21` [EXAMPLE 39, (E)-1-methyl-2-oxo-1′-(3-(2-(trifluoromethyl)phenyl)acryloyl)spiro[indoline-3,4′-piperidine]-5-carbonitrile], the concentration for half-maximal inhibition (IC50) was less than 100 nM. Where the note is “111 nM”, this molecule came in with an inhibition at 0.111 µM of 64.8%.

For the molecule `O=C1NC2(CCN(C(=O)/C=C/c3ccccc3C(F)(F)F)CC2)c2c(Br)cccc21` [EXAMPLE 28, (E)-7-bromo-1′-(3-(2-(trifluoromethyl)phenyl)acryloyl)spiro[isoindoline-1,4′-piperidin]-3-one], the IC50 was less than 100 nM. Besides, for the setting “111 nM”, the inhibition at 0.111 µM is 92.7%.

Consider `NC1CC2(CCN(C(=O)Cc3ccccc3C(F)(F)F)CC2)c2c(Br)cccc21` (racemic) [EXAMPLE 46, (±)-1-(3-amino-7-bromo-2,3-dihydrospiro[indene-1,4′-piperidine]-1′-yl)-2-(2-(trifluoromethyl)phenyl)ethanone], for which the IC50 was less than 100 nM. For the same molecule, the inhibition at 0.111 µM (111 nM) was 78.6%.

Turning to `O=C1CC2(CCN(C(=O)/C=C/c3c(Cl)cccc3Cl)CC2)c2c(Br)cccc21` [EXAMPLE 17, (E)-7-bromo-1′-(3-(2,6-dichlorophenyl)acryloyl)spiro[indene-1,4′-piperidin]-3(2H)-one], the IC50 is less than 100 nM. 0.111 µM produced 81.2% inhibition (111 nM).

On to `O=C(O)CC1CC2(CCN(C(=O)CCc3ccccc3C(F)(F)F)CC2)c2c(Br)cccc21` (single isomer, unassigned) [EXAMPLE 70.2], for which 0.1 µM produced 95.7% inhibition and the IC50 was less than 100 nM. Moreover, the “Average % inhibition at 111 nM” value (111 nM, 0.111 µM) was determined as 99.2%.

Turning to `O=C1NC2(CCN(C(=O)/C=C/c3ccccc3C(F)(F)F)CC2)c2c(Cl)cc(Cl)cc21` [EXAMPLE 29, (E)-5,7-dichloro-1′-(3-(2-(trifluoromethyl)phenyl)acryloyl)spiro[isoindoline-1,4′-piperidin]-3-one], the IC50 was less than 100 nM. This molecule also came in with an inhibition at 0.111 µM (111 nM) of 94.2%.

In the case of `Cc1ccccc1CNC(=O)N1CCC2(CC1)CC(CC(=O)N1CCN(C(=O)OC(C)(C)C)CC1)c1cccc(Br)c12` (centres unmarked) [EXAMPLE 88, tert-butyl 4-(2-(7-bromo-1′-(2-methylbenzylcarbamoyl)-2,3-dihydrospiro[indene-1,4′-piperidine]-3-yl)acetyl)piperazine-1-carboxylate], the concentration for half-maximal inhibition (IC50) is less than 100 nM. Further, the inhibition at 0.111 µM (111 nM) worked out at 66.2%.

On to `CNC(=O)NC1CC2(CCN(C(=O)/C=C/c3ccccc3C(F)(F)F)CC2)c2c(Br)cccc21` (racemic) [EXAMPLE 19, (±)-(E)-1-(7-bromo-1′-(3-(2-(trifluoromethyl)phenyl)acryloyl)-2,3-dihydrospiro[indene-1,4′-piperidine]-3-yl)-3-methylurea], for which at 0.1 µM the inhibition was 98.1% and the concentration for half-maximal inhibition (IC50) was less than 100 nM.

For the molecule `O=C1NC2(CCN(C(=O)Cc3ccccc3C(F)(F)F)CC2)c2c(Br)cccc21` [EXAMPLE 49, 7-bromo-1′-(2-(2-(trifluoromethyl)phenyl)acetyl)spiro[isoindoline-1,4′-piperidin]-3-one], the IC50 lay in the range of 100 to 1000 nM. Under “111 nM”, the inhibition at 0.111 µM is 49.2%.

In the case of `CN1C(=O)C2(CCN(C(=O)/C=C/c3ccccc3C(F)(F)F)CC2)c2cc(C(=O)NCCO)ccc21` [EXAMPLE 36, (E)-N-(2-hydroxyethyl)-1-methyl-2-oxo-1′-(3-(2-(trifluoromethyl)phenyl)acryloyl)spiro[indoline-3,4′-piperidine]-5-carboxamide], the IC50 is 100 to 1000 nM. Further, 0.111 µM produced 0.6% inhibition (111 nM).

In the case of `CCOC(=O)CC1CC2(CCN(C(=O)NCc3ccccc3S(C)(=O)=O)CC2)c2c(Br)cccc21` (centres unmarked) [EXAMPLE 93, Ethyl 2-(7-bromo-1′-(2-(methylsulfonyl)benzylcarbamoyl)-2,3-dihydrospiro[indene-1,4′-piperidine]-3-yl)acetate], the IC50 fell in the range of 100 to 1000 nM. For the setting “111 nM”, this molecule showed an inhibition at 0.111 µM of 18.5%.

For `CCOC(=O)CC1CC2(CCN(C(=O)N(CC)Cc3c(F)cccc3Cl)CC2)c2c(Br)cccc21` (centres unmarked) [EXAMPLE 81], the IC50 is less than 100 nM. The molecule also had an inhibition at 0.111 µM (111 nM) of 59.2%.

Consider `CCOC(=O)CC1CC2(CCN(C(=O)NCc3ccccc3OCC)CC2)c2c(Br)cccc21` (centres unmarked) [EXAMPLE 82, Ethyl 2-(7-bromo-1′-(2-ethoxybenzylcarbamoyl)-2,3-dihydrospiro[indene-1,4′-piperidine]-3-yl)acetate], for which the IC50 was in the range of 100 to 1000 nM. The molecule also yielded an inhibition at 0.111 µM (111 nM) of 28.6%.

In the case of `CS(=O)(=O)N1Cc2ccccc2C2(CCN(C(=O)/C=C/c3ccccc3C(F)(F)F)CC2)C1` [EXAMPLE 22, (E)-1-(2-(methylsulfonyl)-2,3-dihydro-1H-spiro[isoquinoline-4,4′-piperidine]-1′-yl)-3-(2-(trifluoromethyl)phenyl)prop-2-en-1-one], the IC50 is less than 100 nM. The molecule also came in with an inhibition at 0.111 µM (111 nM) of 95.3%.

Turning to `O=C(/C=C/c1ccccc1C(F)(F)F)N1CCC2(CC1)CNCc1ccccc12` [EXAMPLE 21, (E)-1-(2,3-dihydro-1H-spiro[isoquinoline-4,4′-piperidine]-1′-yl)-3-(2-(trifluoromethyl)phenyl)prop-2-en-1-one], the IC50 was less than 100 nM. Also, the inhibition at 0.111 µM (111 nM) is 87.4%.

With `CN1C(=O)c2cccc(Cl)c2C12CCN(C(=O)NCc1ccccc1C(F)(F)F)CC2` [EXAMPLE 100, 7-chloro-2-methyl-3-oxo-N-(2-(trifluoromethyl)benzyl)spiro[isoindoline-1,4′-piperidine]-1′-carboxamide], the IC50 was 100 to 1000 nM. The molecule also came in with an inhibition at 0.111 µM (111 nM) of 46.8%.

Consider `CCOC(=O)CC1CC2(CCN(C(=O)NCc3ccccc3C)CC2)c2c(Br)cccc21` (centres unmarked) [EXAMPLE 86, Ethyl 2-(7-bromo-1′(2-methylbenzylcarbamoyl)-2,3-dihydrospiro[indene-1,4′-piperidine]-3-yl)acetate], for which the IC50 was less than 100 nM. The molecule also yielded an inhibition at 0.111 µM (111 nM) of 58.7%.

Regarding `O=C1NC2(CCN(C(=O)CCc3ccccc3C(F)(F)F)CC2)c2c(Cl)cccc21` [EXAMPLE 65, 7-chloro-1′-(3-(2-(trifluoromethyl)phenyl)propanoyl)spiro[isoindoline-1,4′-piperidin]-3-one], the IC50 was less than 100 nM. Besides, the inhibition at 0.111 µM (111 nM) amounted to 87.7%.

With `CNC(=O)c1ccc2c(c1)C1(CCN(C(=O)/C=C/c3ccccc3C(F)(F)F)CC1)C(=O)N2C` [EXAMPLE 38, (E)-N,1-dimethyl-2-oxo-1′-(3-(2-(trifluoromethyl)phenyl)acryloyl)spiro[indoline-3,4′-piperidine]-5-carboxamide], the 50% inhibitory concentration (IC50) fell in the range of 100 to 1000 nM. The inhibition at 0.111 µM (111 nM) worked out at 21.3%.

With `NC(=O)CC1CC2(CCN(C(=O)CCc3ccccc3C(F)(F)F)CC2)c2c(Cl)cccc21` (centres unmarked) [EXAMPLE 80, 2-(7-chloro-1′-(3-(2-(trifluoromethyl)phenyl)propanoyl)-2,3-dihydrospiro[indene-1,4′-piperidine]-3-yl)acetamide], the IC50 was less than 100 nM. The molecule further came in with an inhibition at 0.111 µM (111 nM) of 95.1%.
